Measured values from patent US8084502B2, “Use of agmatine for protection of retinal ganglion cells” (priority 2007, dated 2011).

Key:
Format in all cases: cell-based, rat
caspase-3 = assay: Caspase-3 activity (colorimetric, Ac-DEVD-pNA cleavage) after hypoxia; settings: hypoxia 24 hours; 100 μM of agmatine or 50 μM of Z-VAD-FMK
Experimental: The RGC-5 cell line, which is a RGC line developed from post-natal Sprague-Dawley rats, was grown in modified Dulbecco's Modified Eagle's Medium (DMEM; Gibco) supplemented with 10% of heat inactivated fetal bovine serum (Gibco) and 100 U/mL of penicillin and 100 μg/mL of streptomycin (Gibco). The cells were passaged every 2 to 3 days, and the cultures incubated at 37° C. in 5% of CO2 and air. […] For all experiments, cells were used at an 80% confluence. Cultures were transferred into a closed hypoxic chamber (Form a Scientific Co.) in which oxygen level (5% of O2, 5% of CO2, 90% of N2) and temperature (37° C.) were controlled. After washing twice with deoxygenated serum-free DMEM, cells were maintained in the hypoxic chamber. Control cells were not exposed to hypoxia. Agmatine or BDNF were added to the culture medium at the start of injury as indicated. Caspase-3 activity was measured using the CaspACE™ colorimetric assay system (Promega, Cat no. G7220) according to the manufacturer's instructions. Briefly, cells were harvested and resuspended in cell lysis buffer (10^8 cells/mL). […] After incubating at 37° C. for 4 hours, absorbance was measured using a microplate reader at 405 nm. Absorbance of each sample was determined by subtraction of the mean absorbance of the blank from that of each sample.

RGC-5 [1] = assay: LDH assay, TNF-α-induced cell death; settings: 100 μM of agmatine; for LDH release: 50 ng/mL of TNF-α
Experimental: (§1) The RGC-5 cell line, which is an RGC line developed from post-natal Sprague-Dawley rats, was grown in modified DMEM (Gibco) supplemented with 10% of heat inactivated fetal bovine serum (Gibco) and 100 U/mL of penicillin and 100 μg/mL of streptomycin (Gibco). The cells were passaged every 2 to 3 days and incubated at 37° C. in 5% of CO2 and air. At cultivation, the cells had the same morphology. For all experiments, cells were used at 80% of confluence.
(§2) After washing twice with PBS, cells were cultured in serum-free DMEM and treated with either 10 or 50 ng/mL of recombinant rat TNF-α (Chemicon) for up to 48 hours. The control cells were not exposed to TNF-α. 100 μM of agmatine was added to the culture medium at the start of injury as indicated.
Cell viability was quantified by measuring the amounts of LDH released from the injured cells after TNF-α administration. LDH release is expressed as a value relative to the value of 100, which is the maximum LDH release that occurs after freezing each culture at −70° C. overnight and then rapidly thawing, thus inducing nearly complete cell damage. All experiments were performed in at least quadruplicate, and repeated at least eight times using cell cultures derived from different platings.

RGC-5 [2] = assay: Hoechst 33342 and PI staining after TNF-α
Experimental: as §1, §2
Apoptotic or necrotic cell death was characterized by double staining cells with Hoechst 33342 and PI. Cells were stained with 10 μg/mL of Hoechst 33342 and 10 μg/mL of PI at 37° C. for 30 minutes. After being washed twice with PBS, cells were imaged with a digital camera attached to a fluorescence microscope.

## N=C(N)NCCCCN [agmatine]
caspase-3
  hypoxia-induced caspase-3 activity: equally suppressed
RGC-5 [1]; 24 hours
  LDH release: 5.91±0.86%
RGC-5 [1]; 48 hours
  LDH release: 8.14±2.43%
RGC-5 [1]; all P<0.001
  TNF-α-induced LDH release: significantly inhibited
RGC-5 [2]; 50 ng/mL of TNF-α for 48 hours, 100 μM of agmatine
  RGC loss (Hoechst-positive / PI-positive cells): RGC loss was prevented
RGC-5 [2]; only 100 μM of agmatine, no TNF-α, 48 hours
  effect on culture (Hoechst-positive / PI-labeled cells): did not have a significant effect
